Source: US5276120A, “Process for forming omega-deuxy-azasugars” (The Scripps Research Institute, priority 1992, dated 1994)
Read-outs that look alike come from different tables or passages of the source. Values belong to the compound of their own block, whether it stands above or below them.

Tests used:
α-Glucosidase (BY) = molecular target: T1, α-Glucosidase (BY) (Saccharomyces cerevisiae, UniProt P07265); experiment: Glycosidase inhibition, α-glucosidase from brewers yeast; assay type: biochemical
T1 construct: purchased Sigma
T1 sequence (P07265 whole entry): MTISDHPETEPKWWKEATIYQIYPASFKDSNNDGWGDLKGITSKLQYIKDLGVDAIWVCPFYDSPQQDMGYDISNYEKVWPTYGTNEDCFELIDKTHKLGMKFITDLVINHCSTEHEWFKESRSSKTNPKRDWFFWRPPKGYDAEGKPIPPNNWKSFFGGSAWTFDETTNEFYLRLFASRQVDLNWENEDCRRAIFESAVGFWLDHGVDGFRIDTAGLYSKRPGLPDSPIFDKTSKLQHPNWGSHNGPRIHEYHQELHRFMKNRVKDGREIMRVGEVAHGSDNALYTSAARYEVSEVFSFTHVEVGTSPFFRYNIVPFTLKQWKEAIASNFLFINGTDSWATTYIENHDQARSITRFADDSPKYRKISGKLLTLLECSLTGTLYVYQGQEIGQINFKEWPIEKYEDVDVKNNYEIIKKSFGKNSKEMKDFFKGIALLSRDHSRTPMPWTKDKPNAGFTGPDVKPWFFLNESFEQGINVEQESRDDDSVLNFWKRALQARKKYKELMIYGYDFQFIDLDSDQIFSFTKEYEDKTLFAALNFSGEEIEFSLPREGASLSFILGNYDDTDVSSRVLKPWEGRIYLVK
Source text: (§1) Materials: All of the buffers, enzymes, and substrates were purchased from Sigma and used as received. These included piperazine-N,N'-bis(2-ethanesulfonic acid) (PIPES), sodium acetate (NaOAc), ethylenediaminetetraacetic acid (EDTA), β-D-glucosidase (from sweet almond), p-nitrophenyl β-D-glucoside, α-D-glucosidase, p-nitrophenyl α-D-glucoside, β-N-acetyl-D-glucosaminedase, p-nitrophenyl β-N-acetyl-D-glucosaminide, α-D-mannosidase, and p-nitrophenyl α-D-mannoside.
b) PIPES-NaOAc buffer (0.01M PIPES, 0.2M NaOAc and 0.01 mM EDTA, pH 6.5). This buffer was prepared according to the literature procedure [Dale et al., Biochemistry 1985, 24, 3530].
d) α-D-Glucosidase: 1.5 mg of solid protein (70 units/mg) were dissolved in 1 mL PIPES-NaOAc buffer solution and used for assays without further dilution.
g) Substrate solutions: all substrates were dissolved in the corresponding buffer solution for enzymatic assay.
(§2) For each inhibitor, five inhibitor concentrations, ranging from zero to three times Ki, were generally used to determine the Ki value. […] The amount of enzyme added in each assay was adjusted so that less than 10 percent of the substrate, with its lowest substrate concentration, would be consumed within 45 seconds. Since all of the substrates have p-nitrophenol as leaving group, the assays were monitored at 400 nanometers (nm), where the molecular extinction coefficient, ε, was calibrated to be 3204.5M^-1 cm^-1 at pH 6.5. The following illustrates the detailed procedure.
To a 1 mL disposable cuvette were added […] (μL) of the NaOAc-PIPES buffer solution, 20 μL of the inhibitor solution and 20 μL of the p-nitrophenyl β-D-glucoside solution (100 Mm in PIPES-NaoAc buffer, PH 6.5). The solution was well mixed and 20 μL of the β-D-glucosidase solution were injected into the cuvette to start the reaction. The reaction was monitored at 400 nm on a Beckman DU-70 photospectrometer for 45 seconds and the initial hydrolysis rate was calculated. The same procedure was repeated with five other substrate concentrations. After all the initial rates were accumulated, the corresponding Lineweaver-Burk plot at that inhibitor concentration was constructed.
PIPES-NaOAc buffer was used for all the enzymes except β-N-acetyl-D-glucosaminedase, for which PIPES buffer was used.

β-Glucosidase (SA) = experiment: Glycosidase inhibition, β-glucosidase from sweet almond; assay type: biochemical; conditions: kinetic analysis
Source text: as §1
b) PIPES-NaOAc buffer (0.01M PIPES, 0.2M NaOAc and 0.01 mM EDTA, pH 6.5). This buffer was prepared according to the literature procedure [Dale et al., Biochemistry 1985, 24, 3530]. […]
For each inhibitor, five inhibitor concentrations, ranging from zero to three times Ki, were generally used to determine the Ki value. […] Since all of the substrates have p-nitrophenol as leaving group, the assays were monitored at 400 nanometers (nm), where the molecular extinction coefficient, ε, was calibrated to be 3204.5M^-1 cm^-1 at pH 6.5. […]
To a 1 mL disposable cuvette were added 950 microliters (μL) of the NaOAc-PIPES buffer solution, 20 μL of the inhibitor solution and 20 μL of the p-nitrophenyl β-D-glucoside solution (100 Mm in PIPES-NaoAc buffer, PH 6.5). […] The reaction was monitored at 400 nm on a Beckman DU-70 photospectrometer for 45 seconds and the initial hydrolysis rate was calculated. […]

[1] = molecular target: T2, α-Glucosidase Type I (calf liver) (Bos taurus, UniProt A0A3Q1M9D9); experiment: Glycosidase inhibition, α-glucosidase Type I (calf liver); assay type: biochemical; conditions: footnote not given
T2 construct: host or cells: calf liver
T2 sequence (A0A3Q1M9D9 1-839): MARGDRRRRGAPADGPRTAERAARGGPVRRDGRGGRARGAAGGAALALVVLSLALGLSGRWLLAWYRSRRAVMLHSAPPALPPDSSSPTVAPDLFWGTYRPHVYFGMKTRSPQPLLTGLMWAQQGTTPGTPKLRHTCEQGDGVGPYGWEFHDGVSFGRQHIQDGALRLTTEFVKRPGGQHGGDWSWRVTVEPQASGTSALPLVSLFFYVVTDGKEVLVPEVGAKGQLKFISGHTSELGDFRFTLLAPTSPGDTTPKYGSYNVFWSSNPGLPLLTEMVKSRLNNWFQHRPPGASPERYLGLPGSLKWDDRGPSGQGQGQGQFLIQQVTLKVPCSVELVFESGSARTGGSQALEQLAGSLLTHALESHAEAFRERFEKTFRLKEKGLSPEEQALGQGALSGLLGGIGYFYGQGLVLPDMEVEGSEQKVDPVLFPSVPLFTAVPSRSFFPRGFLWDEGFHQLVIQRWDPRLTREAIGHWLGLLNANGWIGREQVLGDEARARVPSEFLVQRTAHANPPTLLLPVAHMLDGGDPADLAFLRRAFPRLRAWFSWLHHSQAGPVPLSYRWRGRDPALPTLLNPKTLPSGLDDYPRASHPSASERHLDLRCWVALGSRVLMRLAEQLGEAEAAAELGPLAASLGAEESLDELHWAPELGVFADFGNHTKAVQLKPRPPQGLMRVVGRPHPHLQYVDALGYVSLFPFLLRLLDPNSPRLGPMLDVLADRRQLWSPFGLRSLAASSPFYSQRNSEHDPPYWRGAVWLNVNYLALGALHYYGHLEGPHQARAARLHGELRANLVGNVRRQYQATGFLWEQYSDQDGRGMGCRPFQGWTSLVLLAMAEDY

[2] = system: β-D-Galactosidase (jack bean); experiment: Glycosidase inhibition, β-D-galactosidase (jack bean); assay type: biochemical; conditions: 10 mM inhibitor in the assay
Source text: as §2

α-L-Fucosidase = α-L-Fucosidase inhibition, hydrolysis of p-nitrophenyl-α-L-fucoside; assay type: biochemical; conditions: for Type of fucosidase inhibition: versus fuc-pNP
Procedure: α-L-Fucosidase activity was measured by incubating the enzyme (0.005 Units) with fuc-pNP ([…]) in 0.4 ml of 50 mM acetate buffer, pH 5.5 for 20 minutes at 25° C. in the absence and presence of the azasugars of the present invention. The reaction was stopped by the addition of 0.8 ml of 2 Mm glycine buffer, pH 10.5. The amount of formed p-nitrophenol was determined by optical density spectroscopy at a wavelength of 400 nm.

[3] = system: AIDS virus gp160 envelope protein precursor; conditions: Walker et al., Proc. Natl. Acad. Sci. 1987, 84, 8120; cited from earlier work
[4] = pH 6.5, p-nitrophenyl α-D-glucoside, Lineweaver-Burk, read-out: Ki (M), α-Glucosidase (BY)
[5] = fuc-pNP substrate, 50 mM acetate buffer, pH 5.5, 25° C., read-out: Ki (mM), α-L-Fucosidase Inhibition (Table 2)

SMILES: C[C@H]1NC[C@H](O)[C@@H](O)[C@@H]1O [Compound 3c, 1,5,6-Trideoxy-1,5-imino-D-glucitol]
Ki (α-Glucosidase (BY)): 0.00156 M

Ki (α-Glucosidase (BY); [4]): 0.00178 M
SMILES: C[C@@H]1[C@@H](O)[C@H](O)[C@@H](O)CN1C [Compound 17, N-Methyl-1,5,6-trideoxy-1,5-imino-D-glucitol]

Ki (α-Glucosidase (BY); [4]): 0.00695 M
Potency relative to Compound 17, β-glucosidase from sweet almond (β-Glucosidase (SA)): less potent inhibitor than Compound 17
SMILES: CC1C(O)C(O)C(O)C[N+]1(C)[O-] [Compound 18, N-Methyl-1,5,6-trideoxy-1,5-imino-D-glucitol oxide]

SMILES: CN1CC(O)C(O)C(O)C1CO (stereo not shown) [Compound 19, N-methyl 1-deoxynojirimycin]
Ki [1]: 0.07 µM
Ki (α-Glucosidase (BY)): 0.000369 M

SMILES: OCC1NCC(O)C(O)C1O (stereo not shown) [Compound 23, 1-deoxynojirimycin]
Ki (α-Glucosidase (BY)): 8.67e-06 M
Inhibition of β-D-Galactosidase (jack bean) [2]: No inhibition

SMILES: OCC1NCC(O)C(O)C1O [Compound 124, D-1-deoxytalonojirimycin]
Ki (α-L-Fucosidase; [5]): 0.05 ± 0.006 mM

Ki (α-L-Fucosidase; [5]): 0.03 ± 0.01 mM
SMILES: OC[C@H]1NC[C@@H](O)[C@@H](O)[C@@H]1O [D-1-deoxymannojirimycin, 1,5-dideoxy-1,5-imino-D-mannitol]

Ki (α-L-Fucosidase; competitive inhibitor versus fuc-pNP, read-out: Ki versus fuc-pNP): 0.3 ± 0.01 mM
Ki (α-L-Fucosidase; [5]): 0.3 ± 0.1 mM
Type of fucosidase inhibition (α-L-Fucosidase): competitive inhibitor
SMILES: C[C@@H]1OC(O)[C@@H](O)[C@H](O)[C@@H]1O (stereo partly drawn) [L-Fucose]

SMILES: OC1CN2CCC(O)C2C(O)C1O (stereo not shown) [castanospermine, 1,6,7,8-tetrahydroxyoctahydroindolizine]
Effect on processing of AIDS virus gp160 envelope protein precursor [3]: inhibit the processing of the AIDS virus gp160 envelope protein precursor

SMILES: Oc1ccccc1 [phenol]
Ki (α-L-Fucosidase; noncompetitive inhibitor, analog of p-nitrophenol, read-out: Kis): 0.18 ± 0.02 mM
Type of fucosidase inhibition (α-L-Fucosidase): noncompetitive inhibitor
